Drawing on patent US8173654B2, “Triazolopyridazine compounds” (Janssen Pharmaceutica N.V., priority 2005, dated 2012), this text covers IC50 for six compounds.

Test [1] relates to HepG2 cells. As to the kind of experiment: HepG2 cellular scatter assay (HGF-induced, RT-CES impedance). It counts as cell-based. The conditions noted are these: Homo sapiens, 40 ng/ml HGF. The text has this:
Human Growth Factor (HGF) and its receptor (c-Met) are involved in cellular motility. Indeed HGF was also identified as Scatter Factor (SF), based on its powerful motility effect on certain cell types. Cellular motility is critical for pathological processes of oncologic disease, most importantly, the establishment of metastatic lesions distant from the primary tumor and formation of new blood vessels (angiogenesis). One therapeutic hypothesis is that this movement of cell types may be blunted or eliminated by the use of c-Met kinase inhibitors. (See: Jiang, W. C, Martin, T. A., Parr, C., Davies, G., Matsumoto, K. and Nakamura, T. Critical Reviews in Oncology/Hematology 53 (2005) 35-69. and references cited therein.) It should also be noted that cellular motility, especially with regard to angiogenesis, is important in other disease states.
Cellular scatter was measured with a Real-Time Cell Electronic Sensing system (RT-CES), from ACEA Biosciences Inc. (San Diego, Calif.). The RT-CES system uses specialized RT-ACE microtiter plates (cat:RCD96, ACEA Biosciences Inc.) to non-invasively quantify cellular status in real-time. The interaction of cells with the surface of the plates, which are integrated with microelectronic sensor arrays, leads to the generation of a cell-electrode impedance response. A higher impedance value indicates more cell attachment and thus less cellular scatter.
50 μl of Assay Media (MEM supplemented with 10% FBS, 2 mM L-glutamine, 1.5 g/L sodium bicarbonate, 1 mM sodium pyruvate, and 0.1 mM non-essential amino acids) was added into 96-well RT-ACE plates and recorded for 30 min on the RT-CES. 50 μl of HepG2 cells (cat: HB-8065, ATCC) were added into each well ([…]). The plate was read in RT-CES and incubated for 20-24 hours. After the 20-24 hours incubation, 50 μl of Assay Media containing different concentrations of testing compounds was added into each well and incubated for 1 hour. Finally, 50 μl of Assay Media containing 160 ng/ml of HGF was added into each well (40 ng/ml in 200 μl). The plate was incubated and read in the RT-CES for 20-24 hours, with a record time every 15 minutes. The positive control was HGF without compounds and negative control was no-HGF without compound. All determinations were performed in duplicate wells and IC50 values were calculated using GraphPad Prism software (GraphPad Software; San Diego, Calif.).

For test [2], the target named is T1, c-Met (Homo sapiens, UniProt P08581). As to the kind of experiment: Delfia autophosphorylation kinase assay on the c-Met. Further details: The purified His6 tagged cytoplasmic domain of c-Met was diluted to a concentration of 500 ng/ml; host or cells: Sf9 insect cells (baculovirus, pFastBacHTa). It counts as biochemical. The note with it: His6 tagged cytoplasmic domain of c-Met, 1 μM ATP; read-out: cMet Delfia autophos IC-50. The essentials: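 Time-resolved fluorescence tracked autophosphorylation of the His6-tagged c-Met cytoplasmic domain, dispensed at 500 ng/ml onto nickel-chelate plates. Reaction buffer held 1 μM ATP, 10 mM MgCl2, vanadate and DTT at pH 8.0, for 1 h at room temperature.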
Target sequence in this assay (P08581 956-1390 limits assumed): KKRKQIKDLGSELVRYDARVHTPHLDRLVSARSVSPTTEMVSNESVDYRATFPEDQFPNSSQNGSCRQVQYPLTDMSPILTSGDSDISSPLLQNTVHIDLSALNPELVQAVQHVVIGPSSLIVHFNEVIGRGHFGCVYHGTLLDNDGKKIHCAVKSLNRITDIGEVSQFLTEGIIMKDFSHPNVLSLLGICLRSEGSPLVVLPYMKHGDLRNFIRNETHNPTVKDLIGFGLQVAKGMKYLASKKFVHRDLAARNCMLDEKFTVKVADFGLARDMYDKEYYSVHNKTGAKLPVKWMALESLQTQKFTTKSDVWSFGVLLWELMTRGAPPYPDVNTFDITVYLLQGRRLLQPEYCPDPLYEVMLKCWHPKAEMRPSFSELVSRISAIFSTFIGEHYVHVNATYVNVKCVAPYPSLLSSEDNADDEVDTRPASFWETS

Test [3] has as its target T1, c-Met. As to the kind of experiment: Cell based ELISA assay for HGF stimulated c-Met phosphorylation in S114 cells. The note with it: read-out: c-Met Cell ELISA IC-50. Further details: expressed in transfected cells; host or cells: S114 (murine NIH 3T3 derived). (In an ELISA, binding on a coated surface is turned into a signal by an enzyme label.)
Target sequence in this assay (P08581 25-1390): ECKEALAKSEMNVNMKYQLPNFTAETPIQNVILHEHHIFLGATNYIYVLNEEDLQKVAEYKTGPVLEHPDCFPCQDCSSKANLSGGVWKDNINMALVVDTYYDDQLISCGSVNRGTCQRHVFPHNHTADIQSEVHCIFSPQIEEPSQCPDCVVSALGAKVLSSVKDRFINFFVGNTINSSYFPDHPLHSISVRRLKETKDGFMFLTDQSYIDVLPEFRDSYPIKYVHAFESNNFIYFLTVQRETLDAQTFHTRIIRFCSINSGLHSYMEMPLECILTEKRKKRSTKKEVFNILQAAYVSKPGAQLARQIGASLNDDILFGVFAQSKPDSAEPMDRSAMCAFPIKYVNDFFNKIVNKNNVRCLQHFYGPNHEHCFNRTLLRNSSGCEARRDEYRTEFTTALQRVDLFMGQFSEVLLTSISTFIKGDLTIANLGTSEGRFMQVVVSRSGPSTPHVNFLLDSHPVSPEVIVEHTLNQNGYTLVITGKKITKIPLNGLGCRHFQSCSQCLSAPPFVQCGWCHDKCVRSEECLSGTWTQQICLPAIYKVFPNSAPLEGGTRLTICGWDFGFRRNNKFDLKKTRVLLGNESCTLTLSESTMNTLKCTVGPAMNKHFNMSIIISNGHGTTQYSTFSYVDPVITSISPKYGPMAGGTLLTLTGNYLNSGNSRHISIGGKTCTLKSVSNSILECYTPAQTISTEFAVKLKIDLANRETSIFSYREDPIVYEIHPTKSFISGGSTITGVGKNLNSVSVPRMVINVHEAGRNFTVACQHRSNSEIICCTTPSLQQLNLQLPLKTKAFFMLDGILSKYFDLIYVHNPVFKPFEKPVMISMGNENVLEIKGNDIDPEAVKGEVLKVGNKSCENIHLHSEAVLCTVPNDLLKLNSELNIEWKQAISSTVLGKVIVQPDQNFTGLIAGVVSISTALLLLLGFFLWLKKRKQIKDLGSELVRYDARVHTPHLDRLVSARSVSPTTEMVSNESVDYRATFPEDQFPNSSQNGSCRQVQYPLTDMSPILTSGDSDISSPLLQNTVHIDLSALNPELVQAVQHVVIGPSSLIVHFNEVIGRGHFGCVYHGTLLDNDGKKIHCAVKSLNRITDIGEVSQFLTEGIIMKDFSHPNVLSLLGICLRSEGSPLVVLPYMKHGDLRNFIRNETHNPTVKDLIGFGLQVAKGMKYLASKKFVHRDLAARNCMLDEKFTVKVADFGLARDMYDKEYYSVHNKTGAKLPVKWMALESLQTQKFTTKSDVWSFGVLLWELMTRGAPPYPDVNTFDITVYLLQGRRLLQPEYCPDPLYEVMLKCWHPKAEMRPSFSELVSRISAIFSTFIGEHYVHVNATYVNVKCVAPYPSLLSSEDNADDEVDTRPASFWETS

As to `FC(F)(c1ccc2ncccc2c1)c1nnc2ccc(-c3ccncc3)nn12` [Example 60, 6-[Difluoro-(6-pyridin-4-yl-[1,2,4]triazolo[4,3-b]pyridazin-3-yl)-methyl]-quinoline], the IC50 in test [1] turned out to be 287 nM; in test [2] it was 1 nM; in test [3] it was 12 nM.

For the compound `Cc1cc(-c2ccc3nnc(C(F)(F)c4ccc5ncccc5c4)n3n2)ccn1` [Example 86, 6-{Difluoro-[6-(2-methyl-pyridin-4-yl)-[1,2,4]triazolo[4,3-b]pyridazin-3-yl]-methyl}-quinoline], the IC50 in test [1] was 715 nM; in test [2], 2.8 nM; in test [3], 34 nM.

Take `CN1CCN(C(=O)c2ccc(-c3ccc4nnc(C(F)(F)c5ccc6ncccc6c5)n4n3)s2)CC1` [Example 97, {5-[3-(Difluoro-quinolin-6-yl-methyl)-[1,2,4]triazolo[4,3-b]pyridazin-6-yl]thiophen-2-yl}-(4-methyl-piperazin-1-yl)-methanone]: the IC50 in test [1] came to 1160 nM; in test [2], 3 nM; in test [3], 3 nM.

For `CS(=O)(=O)N1CCN(C(=O)c2ccc(-c3ccc4nnc(C(F)(F)c5ccc6ncccc6c5)n4n3)s2)CC1` [Example 98, {5-[3-(Difluoro-quinolin-6-yl-methyl)-[1,2,4]triazolo[4,3-b]pyridazin-6-yl]-thiophen-2-yl}-(4-methanesulfonyl-piperazin-1-yl)-methanone], the values for the IC50 in test [1], in test [2] and in test [3] were 64 nM, 2 nM and 4 nM, respectively.

Regarding `CS(=O)(=O)n1cc(-c2ccc3nnc(C(F)(F)c4ccc5ncccc5c4)n3n2)cn1` [Example 99, 6-{Difluoro-[6-(1-methanesulfonyl-1H-pyrazol-4-yl)-[1,2,4]triazolo[4,3-b]pyridazin-3-yl]-methyl}-quinoline], the results for the IC50 in test [1], in test [2] and in test [3] were 1100 nM, 2 nM and 34 nM, respectively.

With `CCCc1ncc(-c2ccc3nnc(C(F)(F)c4ccc5ncccc5c4)n3n2)s1` [Example 104, 6-{Difluoro-[6-(2-propyl-thiazol-5-yl)-[1,2,4]triazolo[4,3-b]pyridazin-3-yl]-methyl}-quinoline], the IC50 in test [1] was determined as 543 nM; in test [2], 2 nM; in test [3] it was 37 nM.
